One data set is described as follows: in vitro. To be noted: human.
A further data set relates to YFV 17D strain. The experiment in a line: microbe, parasite or virus in culture. It is filed as cell-based, yellow fever virus.
The next data set deals with protease for YFV (Yellow fever virus, UniProt P03314). In kind it is biochemical.
For the next data set, the target named is polymerase for YFV (Yellow fever virus, UniProt P03314). It is filed as biochemical.
Setting [1] is: Yellow fever virus, Huh-7, read-out: EC50 (Neutral Red).
[2] abbreviates: Yellow fever virus, Huh-7, read-out: EC50 (Visual).

Read-outs that look alike come from different tables or passages of the source. Some results are limits rather than exact numbers.

Chain of protease for YFV (P03314 1485-2107 limits assumed): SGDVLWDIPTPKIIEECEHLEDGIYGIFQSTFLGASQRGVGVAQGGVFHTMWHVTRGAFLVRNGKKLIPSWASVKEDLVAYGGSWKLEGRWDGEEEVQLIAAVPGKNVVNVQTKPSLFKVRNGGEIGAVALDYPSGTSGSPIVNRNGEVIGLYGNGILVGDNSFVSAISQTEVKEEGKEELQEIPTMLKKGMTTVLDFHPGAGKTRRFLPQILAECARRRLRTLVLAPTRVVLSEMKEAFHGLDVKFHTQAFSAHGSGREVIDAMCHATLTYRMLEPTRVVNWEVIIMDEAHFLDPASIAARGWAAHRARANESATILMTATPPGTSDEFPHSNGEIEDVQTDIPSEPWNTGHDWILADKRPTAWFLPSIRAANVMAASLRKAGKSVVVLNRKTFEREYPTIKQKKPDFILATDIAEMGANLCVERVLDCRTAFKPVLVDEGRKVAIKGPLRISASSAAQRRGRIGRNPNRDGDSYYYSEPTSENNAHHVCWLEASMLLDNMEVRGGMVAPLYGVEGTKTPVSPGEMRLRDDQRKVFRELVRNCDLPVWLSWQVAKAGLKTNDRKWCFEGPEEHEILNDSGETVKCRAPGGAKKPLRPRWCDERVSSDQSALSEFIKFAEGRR
Chain of protease for YFV (P03314 1355-1484 partner limits assumed): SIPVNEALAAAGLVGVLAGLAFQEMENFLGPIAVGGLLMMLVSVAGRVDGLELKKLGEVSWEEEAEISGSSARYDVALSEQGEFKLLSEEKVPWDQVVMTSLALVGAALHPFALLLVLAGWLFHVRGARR
Chain of polymerase for YFV (P03314 2507-3411 limits assumed): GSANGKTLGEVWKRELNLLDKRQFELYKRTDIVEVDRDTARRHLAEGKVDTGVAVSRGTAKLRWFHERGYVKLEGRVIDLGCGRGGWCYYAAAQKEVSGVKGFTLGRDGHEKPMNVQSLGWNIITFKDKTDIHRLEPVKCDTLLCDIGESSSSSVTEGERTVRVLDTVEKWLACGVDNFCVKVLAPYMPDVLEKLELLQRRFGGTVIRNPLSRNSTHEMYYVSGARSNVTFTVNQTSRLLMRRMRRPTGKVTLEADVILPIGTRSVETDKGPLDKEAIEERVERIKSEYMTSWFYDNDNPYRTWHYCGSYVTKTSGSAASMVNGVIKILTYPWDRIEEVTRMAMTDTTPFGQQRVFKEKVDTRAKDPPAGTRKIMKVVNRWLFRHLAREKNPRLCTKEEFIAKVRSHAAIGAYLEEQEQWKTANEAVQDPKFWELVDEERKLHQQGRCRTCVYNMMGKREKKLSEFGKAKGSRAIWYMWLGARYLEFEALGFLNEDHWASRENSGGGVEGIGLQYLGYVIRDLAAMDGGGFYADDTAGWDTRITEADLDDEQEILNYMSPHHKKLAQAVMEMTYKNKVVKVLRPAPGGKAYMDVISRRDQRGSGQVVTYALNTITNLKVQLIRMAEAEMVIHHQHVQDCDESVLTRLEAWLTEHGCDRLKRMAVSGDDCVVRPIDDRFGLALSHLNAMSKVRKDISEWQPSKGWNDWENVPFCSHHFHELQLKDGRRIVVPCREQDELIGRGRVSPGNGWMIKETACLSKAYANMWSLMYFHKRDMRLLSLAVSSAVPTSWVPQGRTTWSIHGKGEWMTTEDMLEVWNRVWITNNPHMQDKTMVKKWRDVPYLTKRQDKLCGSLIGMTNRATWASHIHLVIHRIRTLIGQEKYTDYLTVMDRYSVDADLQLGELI

For `CCn1nc(C(=O)O)c(=O)c2cc3c(cc21)OCO3` [Cinoxacin], the CC50 in the data set “in vitro” (CC50 (Neutral Red)) and in the data set “in vitro” (CC50 (Visual)) was greater than 100 µM throughout. The EC50 in the data set with YFV 17D strain (setting [1]) and in the data set on YFV 17D strain (setting [2]) was greater than 100 µM each time.
Take “N-{4-cyano-5-[(4-fluorophenyl)amino]-1H-pyrazol-3-yl}naphthalene-2-sulfonamide [Compound 11626003]”: at protease for YFV, the “activity against the protease for YFV” value is recorded as “not active”. In addition, the EC50 in the data set on YFV 17D strain (read-out: EC50 (Neutral Red)) came to 3.3 µM; in the data set on YFV 17D strain (read-out: EC50 (Visual)), 3.2 µM. In addition, the “activity against the polymerase for YFV” value at polymerase for YFV was “not active”.
With `Oc1ccc(-c2nc(-c3ccncc3)c(-c3ccc(F)cc3)[nH]2)cc1` [SB202190], the CC50 in the data set “in vitro” (CC50 (Neutral Red)) and in the data set “in vitro” (CC50 (Visual)) was greater than 100 µM throughout. Besides, the EC50 in the data set on YFV 17D strain (setting [1]) and in the data set with YFV 17D strain (setting [2]) was greater than 100 µM in each case.
For the molecule `Fc1ccc([C@@H]2CCNC[C@H]2COc2ccc3c(c2)OCO3)cc1` [Paroxetine], the results for the CC50 in the data set “in vitro” (CC50 (Neutral Red)) and in the data set “in vitro” (CC50 (Visual)) were 3.1 µM and 3.2 µM, respectively. The EC50 in the data set on YFV 17D strain (setting [1]) is greater than 3.1 µM; in the data set on YFV 17D strain (setting [2]) it was greater than 3.2 µM.
In the case of `O=C1[C@H](CC[C@H](O)c2ccc(F)cc2)[C@@H](c2ccc(O)cc2)N1c1ccc(F)cc1` [Ezetimibe], the figures for the CC50 in the data set “in vitro” (CC50 (Neutral Red)) and in “in vitro” (CC50 (Visual)) were 29 µM and 32 µM, respectively. Moreover, the EC50 in the data set with YFV 17D strain (setting [1]) is greater than 29 µM; in the data set with YFV 17D strain (setting [2]), greater than 32 µM.

The values above are taken from paper PMC8574157 (Journal of chemical information and modeling, 2021).
